According to patent US6706740B2, “Fungicidal heterocyclic aromatic amides and their compositions, methods of use and preparation” (Dow AgroSciences LLC, priority 1999, dated 2004):

Test system: Magnaporthe grisea (Pyricularia oryzae—PYRIOR)
Experiment: microbe, parasite or virus in culture
Assay type: cell-based
Conditions: Pyricularia oryzae, read-out: PYRIOR in vitro Growth Inhibition

Q: `COc1ccnc(C(=O)N[C@@H](Cc2ccc(OCc3ccccc3)cc2)C(=O)O)c1O` [Compound 337] was tested. Which inhibition at 25 ppm did it give?
A: < 80%

Q: Which inhibition at 25 ppm does the source give for `COc1ccnc(C(=O)N[C@H]2COC(=O)[C@H](Cc3ccccc3)[C@@H](OC(=O)C(C)C)[C@H](C)OC2=O)c1OC(=O)OCCBr` [Compound 692] here?
A: > 80%

Q: Which inhibition at 25 ppm does the source give for `COC(=O)C(COC(=O)COCc1ccccc1)NC(=O)c1nccc(OC)c1O` (centres unmarked) [Compound 346] here?
A: < 80%

Q: `COc1ccnc(C(=O)N[C@@H]2CC3CC2C[C@@H]3COCc2cccc(C(F)(F)F)c2)c1O` (some centres unmarked) [Compound 297] was tested. Which inhibition at 25 ppm did it give?
A: > 80%

Test system: Rhizoctonia solani (RHIZSO)
Experiment: microbe, parasite or virus in culture
Assay type: cell-based
Conditions: Rhizoctonia solani, read-out: RHIZSO in vitro Growth Inhibition

Q: `COc1ccnc(C(=O)N[C@@H](Cc2ccc(OCc3ccccc3)cc2)C(=O)O)c1O` [Compound 337] was tested. Which inhibition at 25 ppm did it give?
A: < 80%

Q: For `COc1ccnc(C(=O)N[C@H]2COC(=O)[C@H](Cc3ccccc3)[C@@H](OC(=O)C(C)C)[C@H](C)OC2=O)c1OC(=O)OCCBr` [Compound 692], which inhibition at 25 ppm is on record?
A: < 80%

Q: For `COC(=O)C(COC(=O)COCc1ccccc1)NC(=O)c1nccc(OC)c1O` (centres unmarked) [Compound 346], which inhibition at 25 ppm is on record?
A: < 80%

Q: For `COc1ccnc(C(=O)N[C@@H]2CC3CC2C[C@@H]3COCc2cccc(C(F)(F)F)c2)c1O` (some centres unmarked) [Compound 297], which inhibition at 25 ppm is on record?
A: > 80%

Test system: Mycosphaerella graminicola (Septoria tritici—SEPTTR)
Experiment: In vitro fungal growth inhibition, Mycosphaerella graminicola (SEPTTR)
Assay type: cell-based
Conditions: Zymoseptoria tritici; 25 ppm in growth medium; read-out: SEPTTR in vitro Growth Inhibition

Q: With `COc1ccnc(C(=O)N[C@@H](Cc2ccc(OCc3ccccc3)cc2)C(=O)O)c1O` [Compound 337] as the compound, how does the inhibition at 25 ppm read?
A: < 80%

Q: With `COc1ccnc(C(=O)N[C@H]2COC(=O)[C@H](Cc3ccccc3)[C@@H](OC(=O)C(C)C)[C@H](C)OC2=O)c1OC(=O)OCCBr` [Compound 692] as the compound, how does the inhibition at 25 ppm read?
A: > 80%

Q: With `COC(=O)C(COC(=O)COCc1ccccc1)NC(=O)c1nccc(OC)c1O` (centres unmarked) [Compound 346] as the compound, how does the inhibition at 25 ppm read?
A: < 80%

Q: How did the inhibition at 25 ppm turn out when `COc1ccnc(C(=O)N[C@@H]2CC3CC2C[C@@H]3COCc2cccc(C(F)(F)F)c2)c1O` (some centres unmarked) [Compound 297] was run?
A: > 80%

Test system: Stagonospora nodorum (Leptosphaeria nodorum—LEPTNO)
Experiment: In vitro fungal growth inhibition, Stagonospora nodorum (LEPTNO)
Assay type: cell-based
Conditions: Leptosphaeria; 25 ppm in growth medium; read-out: LEPTNO in vitro Growth Inhibition

Q: For `COc1ccnc(C(=O)N[C@@H](Cc2ccc(OCc3ccccc3)cc2)C(=O)O)c1O` [Compound 337], which inhibition at 25 ppm is on record?
A: < 80%

Q: How did the inhibition at 25 ppm turn out when `COc1ccnc(C(=O)N[C@H]2COC(=O)[C@H](Cc3ccccc3)[C@@H](OC(=O)C(C)C)[C@H](C)OC2=O)c1OC(=O)OCCBr` [Compound 692] was run?
A: > 80%

Q: Which inhibition at 25 ppm does the source give for `COC(=O)C(COC(=O)COCc1ccccc1)NC(=O)c1nccc(OC)c1O` (centres unmarked) [Compound 346] here?
A: < 80%

Q: Which inhibition at 25 ppm does the source give for `COc1ccnc(C(=O)N[C@@H]2CC3CC2C[C@@H]3COCc2cccc(C(F)(F)F)c2)c1O` (some centres unmarked) [Compound 297] here?
A: > 80%

Test system: Ustilago maydis (USTIMA)
Experiment: microbe, parasite or virus in culture
Assay type: cell-based
Conditions: Mycosarcoma maydis, read-out: USTIMA in vitro Growth Inhibition

Q: For `COc1ccnc(C(=O)N[C@@H](Cc2ccc(OCc3ccccc3)cc2)C(=O)O)c1O` [Compound 337], which inhibition at 25 ppm is on record?
A: < 80%

Q: Which inhibition at 25 ppm does the source give for `COc1ccnc(C(=O)N[C@H]2COC(=O)[C@H](Cc3ccccc3)[C@@H](OC(=O)C(C)C)[C@H](C)OC2=O)c1OC(=O)OCCBr` [Compound 692] here?
A: < 80%

Q: With `COC(=O)C(COC(=O)COCc1ccccc1)NC(=O)c1nccc(OC)c1O` (centres unmarked) [Compound 346] as the compound, how does the inhibition at 25 ppm read?
A: < 80%

Q: `COc1ccnc(C(=O)N[C@@H]2CC3CC2C[C@@H]3COCc2cccc(C(F)(F)F)c2)c1O` (some centres unmarked) [Compound 297] was tested. Which inhibition at 25 ppm did it give?
A: < 80%

Test system: Phytophthora infestans (PHYTIN)
Experiment: microbe, parasite or virus in culture
Assay type: cell-based
Conditions: Phytophthora infestans, read-out: PHYTIN in vitro Growth Inhibition

Q: For `COc1ccnc(C(=O)N[C@@H](Cc2ccc(OCc3ccccc3)cc2)C(=O)O)c1O` [Compound 337], which inhibition at 25 ppm is on record?
A: < 80%

Q: For `COc1ccnc(C(=O)N[C@H]2COC(=O)[C@H](Cc3ccccc3)[C@@H](OC(=O)C(C)C)[C@H](C)OC2=O)c1OC(=O)OCCBr` [Compound 692], which inhibition at 25 ppm is on record?
A: < 80%

Q: How did the inhibition at 25 ppm turn out when `COC(=O)C(COC(=O)COCc1ccccc1)NC(=O)c1nccc(OC)c1O` (centres unmarked) [Compound 346] was run?
A: > 80%

Q: For `COc1ccnc(C(=O)N[C@@H]2CC3CC2C[C@@H]3COCc2cccc(C(F)(F)F)c2)c1O` (some centres unmarked) [Compound 297], which inhibition at 25 ppm is on record?
A: < 80%

Test system: Phytophthora infestans—PHYTIN
Experiment: whole plant or invertebrate
Assay type: in vivo
Conditions: Phytophthora, in Solanum lycopersicum, 24 h, read-out: PHYTIN in vivo 1 Day Protectant

Q: For `COc1ccnc(C(=O)N[C@@H](Cc2ccc(OCc3ccccc3)cc2)C(=O)O)c1O` [Compound 337], which pest or weed control at 100 ppm is on record?
A: < 25%

Q: With `COc1ccnc(C(=O)N[C@H]2COC(=O)[C@H](Cc3ccccc3)[C@@H](OC(=O)C(C)C)[C@H](C)OC2=O)c1OC(=O)OCCBr` [Compound 692] as the compound, how does the pest or weed control at 100 ppm read?
A: < 25%

Q: For `COC(=O)C(COC(=O)COCc1ccccc1)NC(=O)c1nccc(OC)c1O` (centres unmarked) [Compound 346], which pest or weed control at 100 ppm is on record?
A: < 25%

Q: With `COc1ccnc(C(=O)N[C@@H]2CC3CC2C[C@@H]3COCc2cccc(C(F)(F)F)c2)c1O` (some centres unmarked) [Compound 297] as the compound, how does the pest or weed control at 100 ppm read?
A: < 25%

Test system: Puccinia recondita—PUCCRT
Experiment: Brown Rust of Wheat, in vivo whole plant, 24 Hour Protectant
Conditions: 100 ppm spray, wheat, 24 hour protectant, % control of fungal infection vs untreated plants

Q: `COc1ccnc(C(=O)N[C@H]2COC(=O)[C@H](Cc3ccccc3)[C@@H](OC(=O)C(C)C)[C@H](C)OC2=O)c1OC(=O)OCCBr` [Compound 692] was tested. Which “PUCCRT in vivo 1 Day Protectant” value did it give?
A: + +

Same assay, conditions: Puccinia; 100 ppm spray, 24 hour protectant, wheat; control of fungal infection vs untreated plants; read-out: PUCCRT in vivo 1 Day Protectant

Q: `COc1ccnc(C(=O)N[C@@H]2CC3CC2C[C@@H]3COCc2cccc(C(F)(F)F)c2)c1O` (some centres unmarked) [Compound 297] was tested. Which pest or weed control at 100 ppm did it give?
A: < 25%

Same assay, conditions: Puccinia; 100 ppm spray, wheat, 24 hour protectant; control of fungal infection vs untreated plants; read-out: PUCCRT in vivo 1 Day Protectant

Q: For `COc1ccnc(C(=O)N[C@@H](Cc2ccc(OCc3ccccc3)cc2)C(=O)O)c1O` [Compound 337], which pest or weed control at 100 ppm is on record?
A: 25 to 74%

Q: For `COC(=O)C(COC(=O)COCc1ccccc1)NC(=O)c1nccc(OC)c1O` (centres unmarked) [Compound 346], which pest or weed control at 100 ppm is on record?
A: 25 to 74%

Test system: Erysiphe graminis—ERYSGT
Experiment: Powdery Mildew of Wheat, in vivo whole plant, 24 Hour Protectant
Conditions: Erysiphe; 100 ppm spray, 24 hour protectant, wheat; control of fungal infection vs untreated plants; read-out: ERYSGT in vivo 1 Day Protectant

Q: How did the pest or weed control at 100 ppm turn out when `COc1ccnc(C(=O)N[C@@H]2CC3CC2C[C@@H]3COCc2cccc(C(F)(F)F)c2)c1O` (some centres unmarked) [Compound 297] was run?
A: < 25%

Same assay, conditions: Erysiphe; 100 ppm spray, wheat, 24 hour protectant, % control of fungal infection vs untreated plants; read-out: ERYSGT in vivo 1 Day Protectant

Q: `COc1ccnc(C(=O)N[C@H]2COC(=O)[C@H](Cc3ccccc3)[C@@H](OC(=O)C(C)C)[C@H](C)OC2=O)c1OC(=O)OCCBr` [Compound 692] was tested. Which pest or weed control at 100 ppm did it give?
A: < 25%

Same assay, conditions: Erysiphe; 100 ppm spray, wheat, 24 hour protectant; control of fungal infection vs untreated plants; read-out: ERYSGT in vivo 1 Day Protectant

Q: For `COc1ccnc(C(=O)N[C@@H](Cc2ccc(OCc3ccccc3)cc2)C(=O)O)c1O` [Compound 337], which pest or weed control at 100 ppm is on record?
A: < 25%

Q: With `COC(=O)C(COC(=O)COCc1ccccc1)NC(=O)c1nccc(OC)c1O` (centres unmarked) [Compound 346] as the compound, how does the pest or weed control at 100 ppm read?
A: < 25%

Test system: Septoria tritici—SEPTTR
Experiment: Leaf Blotch of Wheat, in vivo whole plant, 24 Hour Protectant
Conditions: 100 ppm spray, wheat, 24 hour protectant, % control of fungal infection vs untreated plants

Q: How did the “SEPTTR in vivo 1 Day Protectant” value turn out when `COc1ccnc(C(=O)N[C@H]2COC(=O)[C@H](Cc3ccccc3)[C@@H](OC(=O)C(C)C)[C@H](C)OC2=O)c1OC(=O)OCCBr` [Compound 692] was run?
A: + +

Same assay, conditions: Zymoseptoria tritici, 24 h, 100 ppm spray, 24 hour protectant, wheat; control of fungal infection vs untreated plants; read-out: SEPTTR in vivo 1 Day Protectant

Q: With `COc1ccnc(C(=O)N[C@@H]2CC3CC2C[C@@H]3COCc2cccc(C(F)(F)F)c2)c1O` (some centres unmarked) [Compound 297] as the compound, how does the pest or weed control at 100 ppm read?
A: 25 to 74%

Same assay, conditions: Zymoseptoria tritici, 24 h, 100 ppm spray, wheat, 24 hour protectant; control of fungal infection vs untreated plants; read-out: SEPTTR in vivo 1 Day Protectant

Q: With `COc1ccnc(C(=O)N[C@@H](Cc2ccc(OCc3ccccc3)cc2)C(=O)O)c1O` [Compound 337] as the compound, how does the pest or weed control at 100 ppm read?
A: < 25%

Q: `COC(=O)C(COC(=O)COCc1ccccc1)NC(=O)c1nccc(OC)c1O` (centres unmarked) [Compound 346] was tested. Which pest or weed control at 100 ppm did it give?
A: 25 to 74%

Test system: Leptosphaeria nodorum—LEPTNO
Experiment: Glume Blotch of Wheat, in vivo whole plant, 24 Hour Protectant
Conditions: 100 ppm spray, wheat, 24 hour protectant, % control of fungal infection vs untreated plants

Q: Which “LEPTNO in vivo 1 Day Protectant” value does the source give for `COc1ccnc(C(=O)N[C@H]2COC(=O)[C@H](Cc3ccccc3)[C@@H](OC(=O)C(C)C)[C@H](C)OC2=O)c1OC(=O)OCCBr` [Compound 692] here?
A: + +

Same assay, conditions: 100 ppm spray, wheat, 24 hour protectant; control of fungal infection vs untreated plants

Q: For `COc1ccnc(C(=O)N[C@@H](Cc2ccc(OCc3ccccc3)cc2)C(=O)O)c1O` [Compound 337], which “LEPTNO in vivo 1 Day Protectant” value is on record?
A: + +

Same assay, conditions: Leptosphaeria; 100 ppm spray, 24 hour protectant, wheat; control of fungal infection vs untreated plants; read-out: LEPTNO in vivo 1 Day Protectant

Q: Which pest or weed control at 100 ppm does the source give for `COc1ccnc(C(=O)N[C@@H]2CC3CC2C[C@@H]3COCc2cccc(C(F)(F)F)c2)c1O` (some centres unmarked) [Compound 297] here?
A: 25 to 74%

Same assay, conditions: Leptosphaeria; 100 ppm spray, wheat, 24 hour protectant; control of fungal infection vs untreated plants; read-out: LEPTNO in vivo 1 Day Protectant

Q: Which pest or weed control at 100 ppm does the source give for `COC(=O)C(COC(=O)COCc1ccccc1)NC(=O)c1nccc(OC)c1O` (centres unmarked) [Compound 346] here?
A: < 25%
